Assay results reported in patent US8546352B2, “Pharmacological preparation for topical use containing N-palmitoyl-vanillamide” (Epitech Group S.r.l., priority 2010, dated 2013).

What was measured:
[1] = test system: eye-wiping movements in mice; details: mouse
[2] = test system: capsaicin-induced eye-wiping movements in mice; assay: Eye-wiping assay in mice, effect on capsaicin-induced wiping; type: in vivo, mouse; details: for Capsaicin-induced wiping movements after Palvanil: same eye
[3] = biological target: T1, recombinant human TRPV1 (HEK-293 cells) (Homo sapiens, UniProt Q8NER1); assay: Desensitization of capsaicin (10 nM)-induced TRPV1-mediated elevation of intracellular [Ca2+]; type: cell-based
T1 construct: expressed in transfected cells
T1 sequence (Q8NER1 whole entry): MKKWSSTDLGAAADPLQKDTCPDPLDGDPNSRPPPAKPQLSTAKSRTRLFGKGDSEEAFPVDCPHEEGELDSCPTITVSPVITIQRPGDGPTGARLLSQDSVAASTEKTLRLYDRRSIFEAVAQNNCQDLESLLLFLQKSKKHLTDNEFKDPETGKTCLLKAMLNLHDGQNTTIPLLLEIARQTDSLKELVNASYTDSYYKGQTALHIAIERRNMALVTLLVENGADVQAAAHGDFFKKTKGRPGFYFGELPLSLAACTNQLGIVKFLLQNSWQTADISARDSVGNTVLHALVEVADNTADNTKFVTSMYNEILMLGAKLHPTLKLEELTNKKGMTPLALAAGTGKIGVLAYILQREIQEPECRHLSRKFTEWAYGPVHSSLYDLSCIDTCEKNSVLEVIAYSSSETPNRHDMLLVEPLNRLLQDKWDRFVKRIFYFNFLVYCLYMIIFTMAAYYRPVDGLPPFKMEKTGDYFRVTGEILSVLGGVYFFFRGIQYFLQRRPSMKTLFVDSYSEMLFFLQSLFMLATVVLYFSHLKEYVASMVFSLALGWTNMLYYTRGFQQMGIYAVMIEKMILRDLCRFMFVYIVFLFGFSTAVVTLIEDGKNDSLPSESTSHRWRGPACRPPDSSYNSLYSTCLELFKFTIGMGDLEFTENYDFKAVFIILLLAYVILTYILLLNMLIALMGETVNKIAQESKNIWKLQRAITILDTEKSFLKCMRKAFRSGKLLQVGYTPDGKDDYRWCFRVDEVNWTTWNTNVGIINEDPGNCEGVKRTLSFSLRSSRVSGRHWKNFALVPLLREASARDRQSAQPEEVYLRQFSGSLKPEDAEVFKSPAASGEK

[4] = biological target: T1, recombinant human TRPV1 (HEK-293 cells); assay: TRPV1-mediated elevation of intracellular [Ca2+] (agonist activity); type: cell-based
[5] = biological target: T1, recombinant human TRPV1 (HEK-293 cells); assay: Desensitization of anandamide/low pH-induced TRPV1-mediated elevation of intracellular [Ca2+]; type: cell-based; details: for IC50: read-out: IC50, desensitization of anandamide effect

Question: What does the source list for `C=C(C)[C@]12C[C@@H](C)[C@@]34O[C@](Cc5ccccc5)(O[C@@H]1[C@@H]3C=C(COC(=O)Cc1cc(I)c(O)c(OC)c1)C[C@]1(O)C(=O)C(C)=C[C@@H]41)O2` [I-RTX, 5′-iodo-resiniferatoxin, reference compound]?
Answer: Eye-wiping reflexes per se ([1]; in vivo): did not cause any reflexes per se; Effect of I-RTX pre-treatment on Palvanil's reduction of capsaicin-induced wiping ([2]; mouse, in vivo): completely reverted

Question: Which “Desensitizing effect at different pre-incubation times, compared with Palvanil” value ([3]; 10 nM capsaicin pre-incubation, 10 nM capsaicin stimulation) does the source give for `COc1cc(CNC(=O)CCCC/C=C/C(C)C)ccc1O` [capsaicin, reference compound] here?
Answer: significantly less pronounced desensitizing effect

Question: And the “Speed of TRPV1 activation (time to achieve 90% of total TRPV1 mediated calcium influx)” value ([4]; different concentrations, greatest difference at 1 μM, capsaicin vs Palvanil)?
Answer: always significantly faster

Question: What about the “Wiping movements monitored within 30 seconds” value ([1]; capsaicin solution 10 μg/ml into the eye) of the same compound?
Answer: 12±0.9 wiping movements

Question: With `CCCCCCCCCCCCCCCC(=O)NCc1ccc(O)c(OC)c1` [Palvanil, N-(4-hydroxy-3-methoxybenzyl)palmitoylamide] as the compound, how does the “Inhibitory effect on anandamide response” value ([5]; 1 nM compound, 0.5 μM AEA, at both pH values) read?
Answer: > 50%

Question: And the IC50 ([5]; 0.5 μM AEA, acid pH (6.5))?
Answer: 0.3 ± 0.01 nM

Question: What about the “Fold more potent at the lower pH” value ([5]; 0.5 μM AEA, pH 6.5 vs pH 7.4) of the same compound?
Answer: 90 fold

Question: And the IC50 ([5]; 0.5 μM AEA, physiological pH (7.4))?
Answer: 0.9 ± 0.1 nM

Question: And the IC50 ([5]; anandamide 0.25 mM (so in the source), acid pH)?
Answer: 0.5 ± 0.02 nM

Question: What about the “Pre-incubation time at which desensitizing effect reached a maximum” value ([3]; 2 nM Palvanil, 10 nM capsaicin stimulation) of the same compound?
Answer: ~50 min

Question: What about the IC50 ([3]; read-out: IC50, desensitization of TRPV1 to the effect of capsaicin, 10 nM capsaicin, compound given 5 min before) of the same compound?
Answer: 0.81 ± 0.07 nM

Question: And the EC50 ([4]; HEK-293-TRPV1 cells, Fluo-4, read-out: EC50, increase in intracellular calcium)?
Answer: 0.65 ± 0.04 nM

Question: What about the “Capsaicin-induced wiping movements after Palvanil” value (“Capsaicin-induced wiping movements” below) ([2]; Palvanil 10 μg/ml, 1 hour before capsaicin 10 μg/ml) of the same compound?
Answer: 8.2±0.9 wiping movements

Question: What about the “Capsaicin-induced wiping movements” value ([2]; Palvanil 10 μg/ml, 3 hours before capsaicin 10 μg/ml) of the same compound?
Answer: 7.0±0.9 wiping movements

Question: And the “Capsaicin-induced wiping movements” value ([2]; Palvanil 30 μg/ml, 1 hour before capsaicin 10 μg/ml)?
Answer: 6.7±0.7 wiping movements

Question: What about the “Capsaicin-induced wiping movements” value ([2]; Palvanil 30 μg/ml, 3 hours before capsaicin 10 μg/ml) of the same compound?
Answer: 6.0±0.8 wiping movements
